Where only a bound is given, the exact number is not on record here.

The source of these data is a melting point compilation (Tetko et al.; mined from patent text by program, amines drawn as free bases though some values may be those of a salt).

One may read the melting point as the temperature, or range, at which the solid turns liquid. `CCOC(=O)c1ccc(C2=NOC(c3cc(Cl)cc(Cl)c3)(C(F)(F)F)C2)cc1[N+](=O)[O-]` (configuration not stated) gave a melting point of 160 to 162 °C.
In turn, `O=C(O)C(OCOc1ccc(-c2ccc(Cl)cc2)cc1)(C(F)(F)F)C(F)(F)F` yielded a melting point of 134 to 135 °C.
On to `CC(C)Oc1nc(SCc2cccc(C(F)(F)F)c2)nc2[nH]c(=O)cnc12`, for which the melting point fell in the range of 205 to 206 °C.
The value for `C[N+](C)(CCl)CCCC(=O)[O-]` was 100 to 101 °C; that for `O=C(C1CCc2nc[nH]c2C1)N1CCc2ccccc2C1` (configuration not stated) was 128 to 130 °C; that for `CCOc1ccc([N+](=O)[O-])c(NC)n1` was 101 °C.
Turning to `NS(=O)(=O)c1ccc(C2=C(c3ccc(F)c(F)c3)CCC2)cc1`, the melting point was 147 to 148 °C.
For `Cc1cc(NC(=O)Cc2ccsc2)nc(C)c1Br`, the melting point was 211 °C.
The value for `Nc1ncc(-c2cccs2)nc1C(=O)Nc1cccnc1` was 178 to 189 °C; that for `CSc1ccc(Oc2ccc([N+](=O)[O-])cc2[N+](=O)[O-])cc1` was 119 to 120 °C.
As to `Cc1cccc(NC(c2ccccc2O)c2ccc3cccnc3c2O)n1` (configuration not stated), the melting point was in the range of 189 to 191 °C.
`CC(c1cc(Cl)cc(Cl)c1O)c1cc(F)cc(Cc2cc(Cl)ccc2O)c1O` (configuration not stated) displayed a melting point of 166 °C.
Take `CC(C)C(NC(=O)Nc1ccc(C(=O)NCC(=O)N(C)C)cc1)C(=O)N1CCCC1C(=O)NC(C(=O)C(F)(F)F)C(C)C` (mixture of isomers): the melting point was in the range of 115 to 125 °C.
`Cc1cc(C)c(/C=C2\C(=O)N(CN3CCCC3)c3ccccc32)[nH]1` had a melting point of 129 to 132 °C.
The value for `COc1ccc2c(Cc3ncc(Cl)cc3Cl)nncc2c1C=Cc1ccccc1` was 180 to 182 °C; that for `CCc1c(OC)cc(OC)c2c1C(=O)N(CSc1nnnn1-c1ccccc1)S2(=O)=O` was 162 to 164 °C.
`CN(C)C=Cc1ncc([N+](=O)[O-])n1CCO` yielded a melting point of 155 to 157 °C.
Consider `CCCCc1c(-c2cc(C)c(OC)c(C)c2)[nH]c2ccccc12`, for which the melting point lay within 76.8 to 77.7 °C.
For `CCn1cc([C@]2(c3cccc(-c4cccnc4F)c3)N=C(N)N(C)C2=O)cc1C(C)=O`, the melting point lay within 109 to 111 °C.
In turn, `O=C(O)CCCc1cc2nc(Cl)ccc2n1S(=O)(=O)c1cc(Cl)ccc1Cl` had a melting point of 86 to 89 °C.
Consider `c1cncc(-c2ccnc3nccn23)c1`, for which the melting point was 162 to 164 °C.
In turn, `Nc1cccc2c1OCCO2` yielded a melting point of 134 to 135 °C.
The value for `COc1ccc(CCc2c(Cl)cncc2Cl)c2c1OC(C)(C)C2` was 128 to 133 °C.
The value for `O=C1CCCN1C(=O)Oc1ccc(Cl)cc1` was 99 to 100 °C; that for `Cn1ncc2[nH]c3ccc(-c4cccc(O)c4)cc3c(=O)c21` was above 250 °C; that for `COc1cc(OC)cc(N2CCN(C(=S)Nc3cc4ccccc4nc3C)CC2)c1` was 211 to 212 °C.
The value for `N#CC1CN1C(=O)c1ccco1` (configuration not stated) was 73 to 76 °C; that for `CNC(=O)c1cccc(NC(=O)COc2cccc(Cl)c2Cl)c1` was 192 to 193 °C.
`COC(=O)c1cnc(N2CCN(CC3CC3)C2=O)s1` gave a melting point of 124 to 126 °C.
The value for `CC(O)c1cnc2cc(Oc3cc(-c4ccc(C(F)(F)F)cc4)ncn3)ccc2c1` (configuration not stated) was 156 to 157 °C.
The value for `CCOc1nn(-c2ccc(C(F)(F)F)cn2)cc1CCCOc1ccc(OC)cc1CC(=O)O` was 138 to 139 °C; that for `Cc1c(C)c2c(c(C)c1NCc1ccccc1)C(c1ccccc1)CO2` (configuration not stated) was 107 to 108 °C; that for `Cc1sc(-c2ccccc2)nc1COc1ccc(CCCC2OCCO2)cc1` was 80 to 81 °C.
In the case of `Nc1cccc(S(F)(F)(F)(F)F)c1`, the melting point was 32 to 35 °C.
In the case of `CCCN(CC)c1cc(C)nc(Oc2c(C)ccc(Cl)c2C)c1C`, the melting point fell in the range of 74 to 76 °C.
The value for `O=C1CCC(N2Cc3c(OCc4ccc(CN5CCCOCC5)cc4)cccc3C2=O)C(=O)N1` (configuration not stated) was 119 to 121 °C; that for `Cc1nn(-c2ccc(C(F)(F)F)cn2)cc1COc1cc(C=O)n(C)n1` was 130 to 131 °C.
Regarding `CC(C)c1nc(C(C)C)c(CSc2c(F)c(F)cc(F)c2F)c(-c2ccc(F)cc2)c1CO`, the melting point fell in the range of 109 to 110 °C.
The value for `COc1cccc2c(=O)[nH]c(-c3ccccc3)cc12` was 227 to 231 °C; that for `O=C(Nc1nncs1)c1ccc2ccccc2c1` was 197 to 199 °C; that for `CC(C)C(CCCCCCCC(=O)O)NCc1ccc(F)cc1` (configuration not stated) was 78 to 82 °C.
The value for `CS(=O)(=O)Nc1cccc(Nc2nc(NC3CCCC3)c3nc[nH]c3n2)c1` was 234 to 239 °C; that for `N#CCOc1c(Br)cc(Br)cc1C=O` was 125 to 130 °C; that for `O=C1C=C(N2CCC3(CC2)CSC2=C(O3)c3ccccc3C(=O)C2=O)c2ccccc2C1=O` was 250 to 260 °C.
The value for `CCOC(=O)C(=O)Nc1ccc(S(=O)(=O)NC(=O)C(=O)OCC)c(C(F)(F)F)c1` was 161 to 162 °C; that for `NS(=O)(=O)c1ccc(-c2noc(-c3cnc4c(C(F)(F)F)cc(-c5ccc(C(F)(F)F)cc5)cn34)n2)cc1` was 292 °C; that for `O=C(O)CC[C@H]1O[C@@H](c2ccccc2Cl)c2cc(Cl)ccc2N(Cc2ccccc2)C1=O` (relative stereo) was 135 to 137 °C.
The compound `CC(=N)NS(=O)(=O)C=Cc1ccccc1` registered a melting point of 130 to 134 °C.
For `CC(C)C[C@@H](C(=O)OCc1ccccc1)N1C(=O)[C@@H](N2C(=O)OC[C@@H]2c2ccccc2)[C@H]1CCc1ccccc1`, the melting point lay in the range of 138 to 140 °C.
Take `CCCc1cc(F)c(C(=O)O)c([N+](=O)[O-])c1O`: the melting point lay within 128 to 129 °C.
The value for `CCCOc1ccccc1C1=NC(=O)C2=NC=NC2=N1` was 254 to 259 °C; that for `CN1N=C2c3cc(F)ccc3SCC2CC1=O` (configuration not stated) was 125 to 128 °C.
The value for `Nc1cc2c(cc1N)C1CC2CN(C(=O)C(F)(F)F)C1` was 129 to 131 °C; that for `C/C(=N\OCCN1CCOCC1)[C@H]1CC[C@H]2[C@@H]3CCC4=CC(=O)CC[C@]4(C)[C@H]3CC[C@]12C` was 107 to 108 °C; that for `CN(C)c1ccc(-c2cc3nccnc3[nH]2)cc1` was 297 to 298 °C.
The value for `COCC(=O)N(C)c1cccc(OCc2ccccc2)c1[N+](=O)[O-]` was 111 to 112 °C; that for `C#CCNC(=O)c1ncn2c1[C@@H]1CCCN1Cc1c(Cl)cccc1-2` was 233 to 235 °C; that for `O=C1c2ccccc2C(O)N1c1ccc2ccc(F)nc2n1` (configuration not stated) was 246 °C.
In turn, `CCCn1c(=O)c2nc(-c3ccc(/C=C/C(=O)O)cc3)[nH]c2n(Cc2ccccc2)c1=O` yielded a melting point above 300 °C.
The value for `O=C(Nc1ccc(-n2nc(C(F)(F)F)cc2C(F)(F)F)cc1)Nc1ccc([N+](=O)[O-])cc1Cl` was 229 to 230 °C; that for `Cc1c[nH]c(=O)c(NC(=O)c2ccccc2F)c1` was 230 to 232 °C; that for `CCNC(=O)c1c([Si](C)(C)C)csc1Cl` was 46 to 48 °C.
Compound `Cc1ccn(-c2ccc(C(=O)c3cccc4c3Nc3ncccc3CN4)c(F)c2)n1` registered a melting point of 122 to 125 °C.
For the compound `Cc1nc(C(=O)NCCN2CCOCC2)cc(-c2cccc([N+](=O)[O-])c2)c1C(C)O` (configuration not stated), the melting point lay within 166 to 167 °C.
The value for `CS(=O)(=O)c1ccc(-c2cccn2-c2ccc(F)cc2F)cc1` was 122 to 125 °C; that for `O=C1CCC(O)(c2ccccc2Cc2ccccc2)CC1` was 138 to 140 °C.
For the compound `CCN1c2ncc(CC(O)c3ccncc3)cc2C(=O)N(C)c2ccc(Cl)nc21` (configuration not stated), the melting point fell in the range of 153 to 154 °C.
The value for `COc1cccc(Cn2cc3c(-c4cccc(C(=O)NCCO)c4)cccc3n2)c1` was 176 to 177 °C.
The compound `CCCCOC(=O)c1ccccc1-c1ccc(Cn2c(CCC)nc(C(C)(C)O)c2C(=O)OCOC(=O)OC(C)C)cc1` returned a melting point of 85 to 87 °C.
The value for `CNc1ccc2c(C)nc(CC3OC(COC(=O)c4ccccc4)C(O)C3O)n2n1` (configuration not stated) was 163 to 165 °C; that for `CCOC(=O)ON(C(=O)NC)c1cc(Cl)ccc1Cl` was 130 to 132 °C.
The value for `CN(C)CCNC(=O)N1CCN(c2ccc(Cl)cc2)CC1` was 125 to 128 °C; that for `C=C(c1cncn1Cc1ccccc1)C(c1cc(C)cc(C)c1)c1cc(C)cc(C)c1` was 170 to 176 °C.
For the compound `Clc1ccc(-c2ccco2)nn1`, the melting point was 103 to 104 °C.
On to `O=C(CCc1ccccc1)NC(NC(=S)Nc1cccc([N+](=O)[O-])c1)C(Cl)(Cl)Cl` (configuration not stated), for which the melting point is 171 to 173 °C.
On to `CC(C(=O)O)c1ccc2cc(OCc3ccc4ccc(Cl)cc4n3)ccc2c1` (configuration not stated), for which the melting point lay in the range of 188 to 190 °C.
In turn, `Cc1cc(-c2csc(-c3cccc(C(=O)O)c3)n2)c(C)o1` returned a melting point of 174 to 175 °C.
With `CC(=O)N[C@@H](CSC(C)=O)C(=O)NCCSC(=O)c1ccccc1`, the melting point is 166 to 168 °C.
The value for `C=C(C)COc1c(C)c(CCC(O)CC(=O)CC(=O)OCC)c2c(c1C)CC(C)(C)O2` (configuration not stated) was 53.5 to 55 °C; that for `CNc1cc(Oc2ccc3c(C(=O)Nc4cccc(C(F)(F)F)c4)cncc3c2)ncn1` was 205 to 208 °C; that for `CCCCNc1cc(C(=O)O)cc(S(=O)(=O)NCCCC)c1Oc1ccccc1` was 184 to 185 °C.
`C#CCCn1ncc2c(N)c(C(=O)OCC=C)c(C)nc21` returned a melting point of 115 to 116 °C.
Turning to `CCN1CC(=O)c2ccc3ccccc3c2S1(=O)=O`, the melting point was in the range of 146 to 147 °C.
Regarding `Clc1cc(Cl)nc(N2CCSCC2)n1`, the melting point is 79.5 to 81.5 °C.
In turn, `CCN(CC)c1ccc(Nc2nc(N)c(C(=O)c3ccc([N+](=O)[O-])cc3)s2)cc1` showed a melting point of 220 to 221 °C.
The value for `C=C(c1cc(Cl)ccc1N1CCCCC1)C(C(N)=O)c1ccc(C(=O)O)cc1` (configuration not stated) was 198 to 200 °C; that for `CC(N1CCN(c2ncn(Cc3ccc(C(F)(F)F)cc3)n2)CC1)C(O)(Cn1cncn1)c1ccc(F)cc1F` (configuration not stated) was 69 to 72 °C.
